Biological target: recombinant CaMKIIδ (Homo sapiens (Human), UniProt Q13557)
Experiment: CaMKIIδ biochemical assay (HTRF)
Conditions: 10 pM CaMKIIδ, 110 nM calmodulin, 12 μM ATP, 1 hour; read-out: CAMKIID-HTRF-384V2 (IC50 - nM)
Procedure: CaMKIIδ Biochemical Assay
The biochemical activity of recombinant CaMKIIδ was measured by monitoring the phosphorylation of a target peptide using Homogenous Time Resolved Fluorescence (HTRF) technology from CisBio Bioassays.

SMILES	IC50
CCN(CC)[C@@H](C)CNC(=O)c1cc(-c2cnn3ccc(-c4cccs4)nc23)nc(N(C)S(C)(=O)=O)c1 [Example 177, (S)—N-(2-(diethylamino)propyl)-2-((N-methylmethyl)sulfonamido)-6-(5-(thiophen-2-yl)pyrazolo[1,5-a]pyrimidin-3-yl)isonicotinamide]	0.8 nM
CCN(CC)[C@@H](C)CNC(=O)c1cc(NS(=O)(=O)C(C)C)nc(-c2cnn3ccc(-c4cccs4)nc23)c1 [Example 178, (S)—N-(2-(diethylamino)propyl)-2-((1-methylethyl)sulfonamido)-6-(5-(thiophen-2-yl)pyrazolo[1,5-a]pyrimidin-3-yl)isonicotinamide]	1.25 nM
CCN(CC)[C@@H](C)CNC(=O)c1cc(NS(=O)(=O)CC)nc(-c2cnn3ccc(-c4cccs4)nc23)c1 [Example 179, (S)—N-(2-(diethylamino)propyl)-2-(ethylsulfonamido)-6-(5-(thiophen-2-yl)pyrazolo[1,5-a]pyrimidin-3-yl)isonicotinamide]	0.72 nM
CCN(CC)[C@@H](C)CNC(=O)c1cc(NS(=O)(=O)C2CC2)nc(-c2cnn3ccc(-c4cccs4)nc23)c1 [Example 180, (S)-2-(cyclopropanesulfonamido)-N-(2-(diethylamino)propyl)-6-(5-(thiophen-2-yl)pyrazolo[1,5-a]pyrimidin-3-yl)isonicotinamide]	0.47 nM
CCN(CC)[C@@H](C)CNC(=O)c1cc(NS(C)(=O)=O)nc(-c2cnn3ccc(-c4cccs4)nc23)c1 [Example 181, (S)—N-(2-(diethylamino)propyl)-2-(methylsulfonamido)-6-(5-(thiophen-2-yl)pyrazolo[1,5-a]pyrimidin-3-yl)isonicotinamide]	0.64 nM
CCN(CC)[C@@H](C)CNC(=O)c1cc(-c2cnn3ccc(-c4cccs4)nc23)nc(N2CC(NS(=O)(=O)CC)C2)c1 [Example 182, (S)—N-(2-(diethylamino)propyl)-2-(3-(ethylsulfonamido)azetidin-1-yl)-6-(5-(thiophen-2-yl)pyrazolo[1,5-a]pyrimidin-3-yl)isonicotinamide]	0.16 nM
CCN(CC)[C@@H](C)CNC(=O)c1cc(-c2cnn3ccc(-c4cccs4)nc23)nc(N2CC(NS(=O)(=O)C(C)C)C2)c1 [Example 183, (S)—N-(2-(diethylamino)propyl)-2-(3-((1-methylethyl)sulfonamido)azetidin-1-yl)-6-(5-(thiophen-2-yl)pyrazolo[1,5-a]pyrimidin-3-yl)isonicotinamide]	0.26 nM
CCN(CC)[C@@H](C)CNC(=O)c1cc(-c2cnn3ccc(-c4cccs4)nc23)nc(N2CCNC2=O)c1 [Example 184, (S)—N-(2-(diethylamino)propyl)-2-(2-oxoimidazolidin-1-yl)-6-(5-(thiophen-2-yl)pyrazolo[1,5-a]pyrimidin-3-yl)isonicotinamide]	1.16 nM
CCNC(=O)Nc1cc(C(=O)NC[C@H](C)N(CC)CC)cc(-c2cnn3ccc(-c4cccs4)nc23)n1 [Example 185, (S)—N-(2-(diethylamino)propyl)-2-(3-ethylureido)-6-(5-(thiophen-2-yl)pyrazolo[1,5-a]pyrimidin-3-yl)isonicotinamide]	0.11 nM
CCOC(=O)Nc1cc(C(=O)NC[C@H](C)N(CC)CC)cc(-c2cnn3ccc(-c4cccs4)nc23)n1 [Example 186, (S)-ethyl (4-((2-(diethylamino)propyl)carbamoyl)-6-(5-(thiophen-2-yl)pyrazolo[1,5-a]pyrimidin-3-yl)pyridin-2-yl)carbamate]	0.23 nM
CCN(CC)[C@@H](C)CNC(=O)c1cc(NC(=O)OC(C)C)nc(-c2cnn3ccc(-c4cccs4)nc23)c1 [Example 187, (S)-isopropyl (4-((2-(diethylamino)propyl)carbamoyl)-6-(5-(thiophen-2-yl)pyrazolo[1,5-a]pyrimidin-3-yl)pyridin-2-yl)carbamate]	0.27 nM
CCC(=O)Nc1cc(C(=O)NC[C@H](C)N(CC)CC)cc(-c2cnn3ccc(-c4cccs4)nc23)n1 [Example 188, (S)—N-(2-(diethylamino)propyl)-2-propionamido-6-(5-(thiophen-2-yl)pyrazolo[1,5-a]pyrimidin-3-yl)isonicotinamide]	0.43 nM
CCN(CC)[C@@H](C)CNC(=O)c1cc(NC(=O)C(C)C)nc(-c2cnn3ccc(-c4cccs4)nc23)c1 [Example 189, (S)—N-(2-(diethylamino)propyl)-2-isobutyramido-6-(5-(thiophen-2-yl)pyrazolo[1,5-a]pyrimidin-3-yl)isonicotinamide]	0.45 nM
CCN(CC)[C@@H](C)CNC(=O)c1cc(NC(=O)C2CC2)nc(-c2cnn3ccc(-c4cccs4)nc23)c1 [Example 190, (S)-2-(cyclopropanecarboxamido)-N-(2-(diethylamino)propyl)-6-(5-(thiophen-2-yl)pyrazolo[1,5-a]pyrimidin-3-yl)isonicotinamide]	0.16 nM
CCN(CC)[C@@H](C)CNC(=O)c1cc(NCC2(C)COC2)nc(-c2cnn3ccc(-c4cccs4)nc23)c1 [Example 191, (S)—N-(2-(diethylamino)propyl)-2-(((3-methyloxetan-3-yl)methyl)amino)-6-(5-(thiophen-2-yl)pyrazolo[1,5-a]pyrimidin-3-yl)isonicotinamide]	0.2 nM
CCN(CC)[C@@H](C)CNC(=O)c1cc(NCC2COC2)nc(-c2cnn3ccc(-c4cccs4)nc23)c1 [Example 192, (S)—N-(2-(diethylamino)propyl)-2-((oxetan-3-ylmethyl)amino)-6-(5-(thiophen-2-yl)pyrazolo[1,5-a]pyrimidin-3-yl)isonicotinamide]	141 nM
CCN(CC)[C@@H](C)CNC(=O)c1cc(NC2COC2)nc(-c2cnn3ccc(-c4cccs4)nc23)c1 [Example 193, (S)—N-(2-(diethylamino)propyl)-2-(oxetan-3-ylamino)-6-(5-(thiophen-2-yl)pyrazolo[1,5-a]pyrimidin-3-yl)isonicotinamide]	83.2 nM
CCN(CC)[C@@H](C)CNC(=O)c1cc(-c2cnn3ccc(-c4cccs4)nc23)nc(N2CC(NC(=O)c3ncco3)C2)c1 [Example 194, (S)—N-(1-(4-((2-(diethylamino)propyl)carbamoyl)-6-(5-(thiophen-2-yl)pyrazolo[1,5-a]pyrimidin-3-yl)pyridin-2-yl)azetidin-3-yl)oxazole-2-carboxamide]	0.19 nM
CCN(CC)[C@@H](C)CNC(=O)c1cc(-c2cnn3ccc(-c4cccs4)nc23)nc(N2CC(NC(=O)N(C)C)C2)c1 [Example 195, (S)—N-(2-(diethylamino)propyl)-2-(3-(3,3-dimethylureido)azetidin-1-yl)-6-(5-(thiophen-2-yl)pyrazolo[1,5-a]pyrimidin-3-yl)isonicotinamide]	0.28 nM
CCN(CC)[C@@H](C)CNC(=O)c1cc(-c2cnn3ccc(-c4cccs4)nc23)nc(N2CC(NC(=O)C3CC3)C2)c1 [Example 196, (S)-2-(3-(cyclopropanecarboxamido)azetidin-1-yl)-N-(2-(diethylamino)propyl)-6-(5-(thiophen-2-yl)pyrazolo[1,5-a]pyrimidin-3-yl)isonicotinamide]	0.22 nM
CCN(CC)[C@@H](C)CNC(=O)c1cc(-c2cnn3ccc(-c4cccs4)nc23)nc(N2CC(NS(C)(=O)=O)C2)c1 [Example 197, (S)—N-(2-(diethylamino)propyl)-2-(3-(methylsulfonamido)azetidin-1-yl)-6-(5-(thiophen-2-yl)pyrazolo[1,5-a]pyrimidin-3-yl)isonicotinamide]	0.09 nM
CCN(CC)[C@@H](C)CNC(=O)c1cc(-c2cnn3ccc(-c4cccs4)nc23)nc(N2CC(NC(C)=O)C2)c1 [Example 198, (S)-2-(3-acetamidoazetidin-1-yl)-N-(2-(diethylamino)propyl)-6-(5-(thiophen-2-yl)pyrazolo[1,5-a]pyrimidin-3-yl)isonicotinamide]	0.15 nM
CCN(CC)[C@@H](C)CNC(=O)c1cc(N[C@H](C)CO)nc(-c2cnn3ccc(-c4cccs4)nc23)c1 [Example 199, N—((S)-2-(diethylamino)propyl)-2-(((R)-1-hydroxypropan-2-yl)amino)-6-(5-(thiophen-2-yl)pyrazolo[1,5-a]pyrimidin-3-yl)isonicotinamide]	0.32 nM
CCN(CC)[C@@H](C)CNC(=O)c1cc(N[C@@H](C)CO)nc(-c2cnn3ccc(-c4cccs4)nc23)c1 [Example 200, N—((S)-2-(diethylamino)propyl)-2-(((S)-1-hydroxypropan-2-yl)amino)-6-(5-(thiophen-2-yl)pyrazolo[1,5-a]pyrimidin-3-yl)isonicotinamide]	0.16 nM
CCN(CC)[C@@H](C)CNC(=O)c1cc(NC[C@H](C)O)nc(-c2cnn3ccc(-c4cccs4)nc23)c1 [Example 201, N—((S)-2-(diethylamino)propyl)-2-(((S)-2-hydroxypropyl)amino)-6-(5-(thiophen-2-yl)pyrazolo[1,5-a]pyrimidin-3-yl)isonicotinamide]	0.11 nM
CCN(CC)[C@@H](C)CNC(=O)c1cc(NC[C@@H](C)O)nc(-c2cnn3ccc(-c4cccs4)nc23)c1 [Example 202, N—((S)-2-(diethylamino)propyl)-2-(((R)-2-hydroxypropyl)amino)-6-(5-(thiophen-2-yl)pyrazolo[1,5-a]pyrimidin-3-yl)isonicotinamide]	0.14 nM
CCN(CC)[C@@H](C)CNC(=O)c1cc(N[C@H]2CCOC2)nc(-c2cnn3ccc(-c4cccs4)nc23)c1 [Example 203, N—((S)-2-(diethylamino)propyl)-2-(((S)-tetrahydrofuran-3-yl)amino)-6-(5-(thiophen-2-yl)pyrazolo[1,5-a]pyrimidin-3-yl)isonicotinamide]	0.18 nM
CCN(CC)[C@@H](C)CNC(=O)c1cc(-c2cnn3ccc(-c4cccs4)nc23)nc(N2CCN(C(C)=O)CC2)c1 [Example 204, (S)-2-(4-acetylpiperazin-1-yl)-N-(2-(diethylamino)propyl)-6-(5-(thiophen-2-yl)pyrazolo[1,5-a]pyrimidin-3-yl)isonicotinamide]	0.28 nM

From patent publication US10100058B2, “Fused heterocyclic compounds as CaM kinase inhibitors” (Gilead Sciences, Inc., priority 2016, dated 2018)
